GI50 data for one compound are collected here from patent US7101872B2, “Farnesyl dibenzodiazepinone, and processes for its production” (Ecopia BioSciences, Inc., priority 2003, dated 2006).

Holding throughout (test): NCI panel SRB growth inhibition
Holding throughout (assay type): cell-based

The subject of assay [1] is 786-0. Particulars: Homo sapiens, 786-0, Renal, 48 h. On the procedure: (§1) The operation of this unique screen utilizes […] different human tumor cell lines, representing leukemia, melanoma and cancers of the lung, colon, brain, ovary, breast, prostate, and kidney.
(§2) Culture conditions and plating: The human tumor cell lines of the cancer-screening panel were grown in RPMI 1640 medium containing 5% fetal bovine serum and 2 mM L-glutamine. For a typical screening experiment, cells were inoculated into 96 well microtiter plates in 100 μL at plating densities ranging from 5,000 to 40,000 cells/well depending on the doubling time of individual cell lines (Table 5). After cell inoculation, the microtiter plates were incubated at 37° C., 5% CO2, 95% air and 100% relative humidity for 24 h prior to addition of experimental drugs. After 24 h, two plates of each cell line were fixed in situ with TCA, to represent a measurement of the cell population for each cell line at the time of drug addition (Tz). Evaluation of inhibitory activity on cell proliferation: ECO-04601 was provided as a lyophilized powder with an estimated purity of 90+%. The compound was stored at −20° C. until day of use. ECO-04601 was solubilized in dimethyl sulfoxide at 400-fold the desired final maximum test concentration. At the time of drug addition, an aliquot of frozen concentrate was thawed and diluted to twice the desired final maximum test concentration with complete medium containing 50 μg/mL gentamicin. Additional four, 10-fold or Y2 log serial dilutions were made to provide a total of five drug concentrations plus control. Aliquots of 100 μl of these different drug dilutions were added to the appropriate microtiter wells already containing 100 μl of medium, resulting in the required final drug concentrations (8.0×10^−5 M to 8.0×10^−9 M).
(§3) Following drug addition, the plates were incubated for an additional 48 h at 37° C., 5% CO2, 95% air, and 100% relative humidity. For adherent cells, the assay was terminated by the addition of cold TCA. Cells were fixed in situ by the gentle addition of 50 μl of cold 50% (w/v) TCA (final concentration, 10% TCA) and incubated for 60 minutes at 4° C. Supernatants were discarded, and the plates were washed five times with tap water and air-dried. Sulforhodamine B (SRB) solution (100 μl) at 0.4% (w/v) in 1% acetic acid was added to each well, and plates were incubated for 10 minutes at room temperature. After staining, unbound dye was removed by washing five times with 1% acetic acid and the plates were air-dried. Bound stain was subsequently solubilized with 10 mM trizma base, and the absorbance was read on an automated plate reader at a wavelength of 515 nm. For suspension cells, the methodology was the same except that the assay was terminated by fixing settled cells at the bottom of the wells by gently adding 50 μl of 80% TCA (final concentration, 16% TCA).
(§4) The growth inhibitory activity of ECO-04601 was measured by NCI utilizing the GI50 value, rather than the classical IC50 value.

Assay [2] relates to COLO 205. The following applies: Homo sapiens, COLO 205, Colon, 48 h. As for the experimental part:
as §1, §2, §3, §4

Assay [3] relates to DU-145. Particulars: Homo sapiens, DU-145, Prostate, 48 h. As for the experimental part: as §1, §2, §3, §4
Assay [4] concerns EKVX. The following applies: Homo sapiens, Non-Small Cell Lung, 48 h. As for the experimental part: as §1, §2, §3, §4
Assay [5] concerns HT29. Particulars: Homo sapiens, HT-29, HT29, Colon, 48 h. As for the experimental part:
as §1, §2, §3, §4

Assay [6] concerns IGR-OV1. The following applies: Homo sapiens, IGROV-1, IGR-OV1, Ovarian, 48 h. As for the experimental part:
as §1, §2, §3, §4

Assay [7] has as its system LOX IMVI. The following applies: Homo sapiens, Melanoma, 48 h. On the procedure: as §1, §2, §3, §4
The test system of assay [8] is M14. Particulars: Homo sapiens, M14, Melanoma, 48 h. On the procedure:
as §1, §2, §3, §4

Assay [9] relates to MCF7. Particulars: Homo sapiens, MCF7, Breast, 48 h. As for the experimental part: as §1, §2, §3, §4
The subject of assay [10] is MDA-MB-231/ATCC. The following applies: Homo sapiens, Breast, 48 h. On the procedure:
as §1, §2, §3, §4

Assay [11] has as its system NCI-H226. Particulars: Homo sapiens, NCI-H226, Non-Small Cell Lung, 48 h. On the procedure: as §1, §2, §3, §4
Assay [12] concerns OVCAR-3. Particulars: Homo sapiens, OVCAR-3, Ovarian, 48 h. On the procedure: as §1, §2, §3, §4
Assay [13] deals with OVCAR-4. The following applies: Homo sapiens, OVCAR-4, Ovarian, 48 h. On the procedure:
as §1, §2, §3, §4

Assay [14] deals with RPMI-8226. Particulars: Homo sapiens, RPMI-8226, Leukemia, 48 h. As for the experimental part:
as §1, §2, §3, §4

Assay [15] deals with SF-268. Particulars: Homo sapiens, SF-268, CNS, 48 h. As for the experimental part: as §1, §2, §3, §4
In assay [16] the test system is SF-295. Particulars: Homo sapiens, SF-295, CNS, 48 h. On the procedure:
as §1, §2, §3, §4

Assay [17] relates to SK-MEL-28. Particulars: Homo sapiens, SK-MEL-28, Melanoma, 48 h. On the procedure:
as §1, §2, §3, §4

For assay [18], the system named is SN12C. Particulars: Homo sapiens, Renal, 48 h. On the procedure:
as §1, §2, §3, §4

Assay [19] concerns SNB-75. Particulars: Homo sapiens, SNB-75, CNS, 48 h. On the procedure: as §1, §2, §3, §4
For assay [20], the system named is U251. Particulars: Homo sapiens, U-251, U251, CNS, 48 h. As for the experimental part:
as §1, §2, §3, §4

For assay [21], the system named is UACC-257. The following applies: Homo sapiens, UACC-257, Melanoma, 48 h. As for the experimental part: as §1, §2, §3, §4
Assay [22] deals with UACC-62. The following applies: Homo sapiens, UACC-62, Melanoma, 48 h. On the procedure: as §1, §2, §3, §4
Assay [23] has as its system UO-31. Particulars: Homo sapiens, UO-31, Renal, 48 h. As for the experimental part: as §1, §2, §3, §4

As to `CC(C)=CCC/C(C)=C/CC/C(C)=C/CN1C(=O)c2cccc(O)c2Nc2c(O)cc(O)cc21` [ECO-04601, 10-farnesyl-4,6,8-trihydroxy-dibenzodiazepin-11-one], the concentration for 50% growth inhibition (GI50) (usually the concentration at which growth is held to half of that of the control) in assay [1] was 6.99 µM; in [2], 12.7 µM; in assay [3], 3.56 µM; in assay [4], 0.23 µM; in assay [5], 20.7 µM; in assay [6] it was 3.11 µM. The GI50 is 4.53 µM in [7]; 4.57 µM in [8]; 10.1 µM in assay [9]; 2.72 µM in assay [10]; 2 µM in assay [11]; 13.5 µM in assay [12]. Also, the GI50 came out at 9.67 µM in assay [13]; 3.15 µM in assay [14]; 4.94 µM in [15]; 12.7 µM in assay [16]; 11.6 µM in [17]; 3.85 µM in assay [18]. For the same compound, the 50% growth inhibitory concentration (GI50) in assay [19] was 7.71 µM; in [20] it was 2.19 µM; in assay [21] it was 2.31 µM; in [22], 1.55 µM; in [23], 19.7 µM.
